Measured values as given in ChEMBL document CHEMBL1148109, “Nobiloside, a new neuraminidase inhibitory triterpenoidal saponin from the marine sponge Erylus nobilis” (J Nat Prod, 2002).
The source made the active and inactive calls. The rule behind the calls is not given here.

What was measured:
Sialidase = target: T1, Sialidase (Clostridium perfringens, UniProt P10481); test: Inhibition of Clostridium perfringens neuraminidase
T1 sequence (P10481 whole entry): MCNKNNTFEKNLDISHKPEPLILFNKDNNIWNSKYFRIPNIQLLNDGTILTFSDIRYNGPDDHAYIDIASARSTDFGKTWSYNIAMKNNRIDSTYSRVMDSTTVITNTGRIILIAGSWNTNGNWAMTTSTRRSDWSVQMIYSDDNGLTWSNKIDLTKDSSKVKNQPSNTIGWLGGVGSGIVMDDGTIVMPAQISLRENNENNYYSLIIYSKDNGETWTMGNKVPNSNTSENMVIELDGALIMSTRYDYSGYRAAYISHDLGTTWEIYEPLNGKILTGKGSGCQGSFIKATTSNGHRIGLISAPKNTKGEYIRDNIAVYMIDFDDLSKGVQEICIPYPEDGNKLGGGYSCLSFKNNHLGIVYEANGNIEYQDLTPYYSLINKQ

[1] = target: T2, Sialidase (Clostridium perfringens) (UniProt P10481); test: Inhibition of Clostridium perfringens neuraminidase at 100 ug/mL
T2 sequence (whole entry): T1 sequence (P10481 whole entry)

| Structure (SMILES) | IC50 (Sialidase) [nM] | Activity [1] |
| --- | --- | --- |
| CC(C)=CCC[C@@H](C)[C@H]1CC[C@@]2(C(=O)O)C3=C(CC[C@]12C)[C@@]1(C)CC[C@H](O[C@@H]2O[C@H](C(=O)O)[C@@H](O[C@@H]4O[C@H](C(=O)O)[C@H](O)[C@H](O[C@@H]5OC[C@H](O)[C@H](O)[C@H]5O)[C@H]4O)[C@H](O)[C@H]2O)C(C)(C)[C@@H]1CC3 [NOBILOSIDE] | 489 |  |
| COC(=O)[C@H]1O[C@@H](O[C@H]2[C@H](O)[C@@H](O)[C@H](O[C@H]3CC[C@]4(C)C5=C(CC[C@H]4C3(C)C)[C@]3(C(=O)OC)CC[C@H]([C@H](C)CCC=C(C)C)[C@@]3(C)CC5)O[C@@H]2C(=O)OC)[C@H](O)[C@@H](O[C@@H]2OC[C@H](O)[C@H](O)[C@H]2O)[C@H]1O |  | inactive |
